Patent US20250188041A1, “NEW COMPOUNDS AND TREATMENT OF RENAL CELL CARCINOMA” (Trustlife Global Inc., priority 2022, published 2025)
Entries after “also recorded” stand apart in the source; their conditions may differ.

Legend:
Type in all cases: cell-based, Human
Caki-1 cells [1] = assay: MTT cell viability assay of Caki-1 treated with TG-101209 and its alternatives; conditions: for cell viability (MTT assay) / Ranking, Cell viability (%): 1 day; for Ranking, Cell viability (%): top five target drugs, MTT assay, 10 μM, rank 1 = greatest reduction; for IC50: Homo sapiens, FIG. 43, assay not named, presumably Caki-1 cell viability
Method: (§1) Cell culture 2: Caki-1 was purchased from CLS Cell Lines Service (Germany). The cells were maintained in McCoy's SA (modified) medium (16600082, Thermo Fisher Scientific, USA) and supplemented with 10% fetal bovine serum (FBS, F7524, Sigma-Aldrich), 1% Penicillin/Streptomycin (P4333, Sigma-Aldrich).
The cytotoxic effects of the TG-101209 and its alternatives on the Caki-1 cells were tested by MTT (Thiazolyl Blue Tetrazolium Bromide) method. 1.5×10^4 cells were seeded per well in a 96-well plate in 100 μL growth media. […] After the incubation period, 5 mg/ml MTT (M2128, Sigma-Aldrich) solution in PBS (10 μL) was added to each well. After 1 hour, the MTT solution and all media were removed from the wells. 100 μl of DMSO was added and mixed to dissolve the formazan crystals. Cell viability was analysed by measuring the absorbance of the dissolved formazan at a wavelength of 570 nm with a microplate reader (Hidex Sense Beta Plus).

Caki-1 cells [2] = assay: LDH cytotoxicity assay of Caki-1; conditions: 1 day; for cytotoxicity (LDH assay): Caki-1, 10 μM; for Ranking, Cytotoxicity (%): top five target drugs, LDH assay, 10 μM, rank 1 = highest cytotoxicity
Method: as §1
Lactate dehydrogenase (LDH) assay was performed with LDH Assay Kit (ab65393). 1.5×10^4 cells per well (from cell culture 2) were seeded in a 96-well plate and drugs were treated at 10 μM for 1 day with 200 μl media. 20 μl of media was analysed with LDH Assay Kit as per manufacturer's instruction.

BUB1B = assay: Western blot, BUB1B expression in Caki-1 treated with TG-101209 alternatives; conditions: Caki-1, 5 μM of target drug, 1 day (FIG. 41; method says 2 days)
Method: as §1
The target drugs developed as alternatives to TG-101209, were dissolved in 0.1% DMSO (41639, Sigma-Aldrich). Caki-1 cells from cell culture 2 were seeded in a 6-well plate at 3×10^5 cells per well. […]
The cells were washed with PBS solution and then lysed with CelLytic M (C2978, Sigma-Aldrich) lysis buffer containing protease inhibitors (11836170001, Roche). The cell lysates were centrifuged at 12 000 rpm for 10 min and supernatants were collected. Protein Assay Dye Reagent (5000006, Bio-Rad) was used for the determination of protein concentration. The absorbance of the proteins was measured spectrophotometrically at 595 nm by a microplate reader (Hidex Sense Beta Plus). Protein electrophoresis was performed using Mini-PROTEAN® TGX™ Precast Gels (4561086, Bio-Rad) and then the separated proteins were transferred to a Trans-Blot Turbo Mini 0.2 um PVDF Transfer Packs membrane (1704158, Bio-Rad) by using Trans-Blot® Turbo™ Transfer System (Bio-Rad). The membrane was blocked with 5% skim milk for 30 min at 4° C. with gentle rocking. After blocking, the membrane was treated with primary antibodies: Anti-BUB1B (HPA008419, Human Protein Atlas, Sweden) and Anti-Beta actin (ab8227, Abcam) as a loading control overnight at 4° C. on a rocking platform. After the treatment of primary antibodies, the membrane was washed three times with TBS-T buffer (A09-7500-100, Medicago). Then, Goat anti-Rabbit IgG-HRP (ab205718, Abcam) was treated as the secondary antibody for 30 min at 4° C. with gentle rocking.

SMILES | cell viability (MTT assay) (Caki-1 cells [1]; Caki-1, 5 μM) | cytotoxicity (LDH assay) (Caki-1 cells [2]) | Ranking, Cytotoxicity (%) (Caki-1 cells [2]) | cell viability (MTT assay) (Caki-1 cells [1]; Caki-1, 10 μM) | Ranking, Cell viability (%) (Caki-1 cells [1]) | expression levels of BUB1B (BUB1B) | IC50 (Caki-1 cells [1]) [nM] | cell viability (MTT assay) (Caki-1 cells [1]; Caki-1, 10 μM, listed as MS)
Cc1cnc(Nc2ccc(C(=O)Nc3cccc(Br)c3)cc2)nc1Nc1cccc(S(=O)(=O)NC(C)(C)C)c1 [M101B, N-(3-bromophenyl)-4-((4-((3-(N-(tert-butyl)sulfamoyl)phenyl)amino)-5-methylpyrimidin-2-yl)amino)benzamide] | greatest | exhibited cytotoxicity | 3 |  |  |  |  | 
COc1cc(NC(=O)c2ccc(Nc3ncc(C)c(Nc4cccc(S(=O)(=O)NC(C)(C)C)c4)n3)cc2)cc(OC)c1 [M101A, 4-((4-((3-(N-(tert-butyl)sulfamoyl)phenyl)amino)-5-methylpyrimidin-2-yl)amino)-N-(3,5-dimethoxyphenyl)benzamide] | greatest | exhibited cytotoxicity | 5 | most profound effect on the cell viability | 4 |  |  | 
Cc1cnc(Nc2ccc(N3CCN(C)CC3)cc2)nc1Nc1cccc(S(=O)(=O)N2CCOCC2)c1 [M7, 5-methyl-N2-(4-(4-methylpiperazin-1-yl)phenyl)-N4-(3-(morpholinosulfonyl)phenyl)pyrimidine-2,4-diamine] |  |  |  |  |  | significantly lower the expression levels of BUB1B | > 3000 | 
Cc1cn(-c2cc(Nc3ncc(C)c(Nc4cccc(S(=O)(=O)NC(C)(C)C)c4)n3)cc(C(F)(F)F)c2)cn1 [M64, N-(tert-butyl)-3-((5-methyl-2-((3-(4-methyl-1H-imidazol-1-yl)-5-(trifluoromethyl)phenyl)amino)pyrimidin-4-yl)amino)benzenesulfonamide] |  |  |  |  |  | significantly lower the expression levels of BUB1B | > 3000 | 
Cc1cnc(Nc2ccc(OCCCN3CCOCC3)cc2)nc1Nc1cccc(S(=O)(=O)NC(C)(C)C)c1 [M103, N-(tert-butyl)-3-((5-methyl-2-((4-(3-morpholinopropoxy)phenyl)amino)pyrimidin-4-yl)amino)benzenesulfonamide] |  |  |  |  |  |  | ~3000 | 
Cc1cnc(Nc2ccc(C(=O)Nc3ccc4ncccc4c3)cc2)nc1Nc1cccc(S(=O)(=O)NC(C)(C)C)c1 [M101H, 4-((4-((3-(N-(tert-butyl)sulfamoyl)phenyl)amino)-5-methylpyrimidin-2-yl)amino)-N-(quinolin-6-yl)benzamide] | greatest |  |  |  |  |  |  | 
Cc1cnc(Nc2ccc(C(=O)Nc3cccc(S(=O)(=O)NC(C)(C)C)c3)cc2)nc1Nc1cccc(S(=O)(=O)NC(C)(C)C)c1 [M101D, N-(3-(N-(tert-butyl)sulfamoyl)phenyl)-4-((4-((3-(N-(tert-butyl)sulfamoyl)phenyl)amino)-5-methylpyrimidin-2-yl)amino)benzamide] | greatest | exhibited cytotoxicity; also recorded: highest cytotoxicity; also recorded: greatest cytotoxicity | 1 | most profound effect on the cell viability; also recorded: greatest reduction of cell viability; also recorded: greatest reduction in cell viability | 2 |  |  | 
Cc1cnc(Nc2ccc(C(=O)Nc3ccc(OCCCN4CCOCC4)cc3)cc2)nc1Nc1cccc(S(=O)(=O)NC(C)(C)C)c1 [M101G, 4-((4-((3-(N-(tert-butyl)sulfamoyl)phenyl)amino)-5-methylpyrimidin-2-yl)amino)-N-(4-(3-morpholinopropoxy)phenyl)benzamide] | greatest |  |  |  |  |  |  | 
COc1cc(Nc2ncc(C)c(Nc3cccc(S(=O)(=O)NC(C)(C)C)c3)n2)cc(OC)c1 [M79, N-(tert-butyl)-3-((2-((3,5-dimethoxyphenyl)amino)-5-methylpyrimidin-4-yl)amino)benzenesulfonamide] |  |  |  |  |  | significantly lower the expression levels of BUB1B | ~3000 | 
Cc1cnc(Nc2ccc(N3CCN(C)CC3)cc2)nc1Nc1cccc(S(=O)(=O)NC2CCC2)c1 [M5, N-cyclobutyl-3-((5-methyl-2-((4-(4-methylpiperazin-1-yl)phenyl)amino)pyrimidin-4-yl)amino)benzenesulfonamide] | greatest | exhibited cytotoxicity; also recorded: highest cytotoxicity; also recorded: greatest cytotoxicity | 2 | greatest reduction of cell viability; also recorded: greatest reduction in cell viability | 1 | significantly lower the expression levels of BUB1B | ~3000 | most profound effect on the cell viability
Cc1cnc(Nc2ccc(N3CCN(C)CC3)cc2)nc1Nc1cccc(S(=O)(=O)Nc2ccccc2)c1 [M3, 3-((5-methyl-2-((4-(4-methylpiperazin-1-yl)phenyl)amino)pyrimidin-4-yl)amino)-N-phenylbenzenesulfonamide] |  |  |  |  |  | significantly lower the expression levels of BUB1B | ~3000 | 
Cc1cnc(Nc2ccc(C(=O)Nc3cccc(S(=O)(=O)N4CCOCC4)c3)cc2)nc1Nc1cccc(S(=O)(=O)NC(C)(C)C)c1 [M101F, 4-((4-((3-(N-(tert-butyl)sulfamoyl)phenyl)amino)-5-methylpyrimidin-2-yl)amino)-N-(3-(morpholinosulfonyl)phenyl)benzamide] | greatest | exhibited cytotoxicity |  |  |  |  |  | 
Cc1ccc(Nc2ncc(C)c(Nc3cccc(S(=O)(=O)NC(C)(C)C)c3)n2)cc1S(N)(=O)=O [M66, N-(tert-butyl)-3-((5-methyl-2-((4-methyl-3-sulfamoylphenyl)amino)pyrimidin-4-yl)amino)benzenesulfonamide] | greatest | exhibited cytotoxicity | 4 | most profound effect on the cell viability | 3 | significantly lower the expression levels of BUB1B |  | 
